Experimental findings from patent US8927563B2, “Kinase inhibitor” (Respivert Limited, priority 2013, dated 2015) are described below.

Where only a bound is given, the exact number is not on record here.

The nature of data set [1]: Hydrolytic stability study. The data set is classed as physicochemical. As to conditions: buffer, 1 mg/mL. How it is done: Chemical stability of Compound I was assessed in a mixture of DMSO and water (3:1) at a test compound concentration of 1 mg/mL
Sample Preparation • A 1.0 mg sample of test compound was dissolved in 750 μL of DMSO. Water (250 μL) was added slowly, ensuring no precipitation occurred.
Recording Stability • A 50 μL aliquot of the test solution was removed and analysed in duplicate by 5 μL HPLC injections. The peak area for the test compound was recorded following manual integration of the corresponding UV trace. • The test solution was heated to 60° C., with stirring, and 50 μL aliquots removed for HPLC analysis at 5 and 24 h timepoints.

For data set [2], the target named is hERG (Homo sapiens (Human), UniProt Q12809). Put plainly: hERG inhibition, IonWorks patch clamp electrophysiology. The data set is classed as cell-based. To be noted: human, 3 μM. How it is done: (§1) Compound I was tested for inhibition of the human ether a go-go (hERG) channel using IonWorks™ patch clamp electrophysiology at Essen Bioscience (Welwyn Garden City, England).
hERG, sequence (Q12809 whole entry): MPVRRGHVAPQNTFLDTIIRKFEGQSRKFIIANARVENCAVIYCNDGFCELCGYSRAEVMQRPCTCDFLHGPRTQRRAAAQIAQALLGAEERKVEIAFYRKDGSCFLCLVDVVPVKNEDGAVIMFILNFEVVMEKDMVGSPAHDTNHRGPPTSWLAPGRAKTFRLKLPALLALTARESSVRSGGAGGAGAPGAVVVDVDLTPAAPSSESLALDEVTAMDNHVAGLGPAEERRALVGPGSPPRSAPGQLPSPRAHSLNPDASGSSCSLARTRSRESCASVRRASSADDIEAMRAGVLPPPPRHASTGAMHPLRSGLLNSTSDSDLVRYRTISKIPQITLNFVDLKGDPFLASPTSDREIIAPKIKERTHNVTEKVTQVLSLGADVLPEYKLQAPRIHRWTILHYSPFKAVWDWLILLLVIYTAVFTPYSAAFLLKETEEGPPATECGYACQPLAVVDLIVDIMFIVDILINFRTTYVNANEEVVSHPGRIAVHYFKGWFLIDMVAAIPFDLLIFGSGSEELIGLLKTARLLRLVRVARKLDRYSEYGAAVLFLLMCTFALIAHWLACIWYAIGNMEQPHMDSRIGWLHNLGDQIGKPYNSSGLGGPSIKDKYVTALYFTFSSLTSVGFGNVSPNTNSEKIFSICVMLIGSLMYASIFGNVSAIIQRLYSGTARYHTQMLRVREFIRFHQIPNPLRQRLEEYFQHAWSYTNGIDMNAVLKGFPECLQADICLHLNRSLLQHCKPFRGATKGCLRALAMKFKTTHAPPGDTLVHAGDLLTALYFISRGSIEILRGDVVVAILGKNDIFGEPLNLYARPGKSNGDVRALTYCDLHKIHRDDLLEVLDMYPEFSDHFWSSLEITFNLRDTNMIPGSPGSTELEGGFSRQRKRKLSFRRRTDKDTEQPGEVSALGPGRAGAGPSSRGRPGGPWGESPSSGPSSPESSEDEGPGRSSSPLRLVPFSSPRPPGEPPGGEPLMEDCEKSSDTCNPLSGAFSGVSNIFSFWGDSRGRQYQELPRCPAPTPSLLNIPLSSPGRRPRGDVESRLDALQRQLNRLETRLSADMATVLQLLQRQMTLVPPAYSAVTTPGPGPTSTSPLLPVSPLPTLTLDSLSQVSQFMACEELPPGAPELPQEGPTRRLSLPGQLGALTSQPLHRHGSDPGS
A general note: The hERG channel carries a current that helps repolarise heart muscle cells.

Data set [3] addresses human ether a go-go (hERG) channel (Homo sapiens (Human), UniProt Q12809). The data set is described as above. The data set is classed as cell-based. As to the method:
as §1

For data set [4], the target named is B-Raf (V600E) (Homo sapiens (Human), UniProt P15056, V600E). Put plainly: KINOMEscan binding of B-Raf (V600E) to standard ligand. How it is done: (§2) Kinase enzyme binding activities of compounds disclosed herein may be determined using a proprietary assay which measures active site-directed competition binding to an immobilized ligand (Fabian, M. A. et al., Nature Biotechnol., 2005, 23:329-336). These assays may be conducted by DiscoverX (formerly Ambit; San Diego, Calif.). The percentage inhibition produced by incubation with a test compound may be calculated relative to the non-inhibited control.
B-Raf (V600E), sequence (P15056 whole entry V600E): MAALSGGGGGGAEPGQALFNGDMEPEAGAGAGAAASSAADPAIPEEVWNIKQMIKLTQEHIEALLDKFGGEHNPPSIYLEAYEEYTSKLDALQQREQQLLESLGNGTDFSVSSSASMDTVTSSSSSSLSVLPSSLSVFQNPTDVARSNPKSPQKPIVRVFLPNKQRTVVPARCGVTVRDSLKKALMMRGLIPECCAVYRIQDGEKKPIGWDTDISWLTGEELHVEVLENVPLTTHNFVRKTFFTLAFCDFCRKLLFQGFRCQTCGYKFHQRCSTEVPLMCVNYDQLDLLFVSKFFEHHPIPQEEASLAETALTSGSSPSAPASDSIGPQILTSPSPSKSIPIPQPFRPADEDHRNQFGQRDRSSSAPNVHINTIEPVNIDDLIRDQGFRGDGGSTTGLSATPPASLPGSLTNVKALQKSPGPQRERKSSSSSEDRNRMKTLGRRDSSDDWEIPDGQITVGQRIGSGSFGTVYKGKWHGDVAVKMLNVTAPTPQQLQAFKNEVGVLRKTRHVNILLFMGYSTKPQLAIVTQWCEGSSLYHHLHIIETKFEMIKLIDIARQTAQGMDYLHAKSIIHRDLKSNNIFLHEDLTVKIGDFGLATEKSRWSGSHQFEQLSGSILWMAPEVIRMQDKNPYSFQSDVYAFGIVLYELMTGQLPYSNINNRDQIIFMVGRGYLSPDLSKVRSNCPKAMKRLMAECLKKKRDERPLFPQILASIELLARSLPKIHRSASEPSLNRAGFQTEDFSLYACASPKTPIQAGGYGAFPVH

The target in data set [5] is Lck (Homo sapiens (Human), UniProt P06239). Put plainly: KINOMEscan dissociation constant, Lck. It counts as binding. How it is done: as §2
Lck, sequence (P06239 whole entry): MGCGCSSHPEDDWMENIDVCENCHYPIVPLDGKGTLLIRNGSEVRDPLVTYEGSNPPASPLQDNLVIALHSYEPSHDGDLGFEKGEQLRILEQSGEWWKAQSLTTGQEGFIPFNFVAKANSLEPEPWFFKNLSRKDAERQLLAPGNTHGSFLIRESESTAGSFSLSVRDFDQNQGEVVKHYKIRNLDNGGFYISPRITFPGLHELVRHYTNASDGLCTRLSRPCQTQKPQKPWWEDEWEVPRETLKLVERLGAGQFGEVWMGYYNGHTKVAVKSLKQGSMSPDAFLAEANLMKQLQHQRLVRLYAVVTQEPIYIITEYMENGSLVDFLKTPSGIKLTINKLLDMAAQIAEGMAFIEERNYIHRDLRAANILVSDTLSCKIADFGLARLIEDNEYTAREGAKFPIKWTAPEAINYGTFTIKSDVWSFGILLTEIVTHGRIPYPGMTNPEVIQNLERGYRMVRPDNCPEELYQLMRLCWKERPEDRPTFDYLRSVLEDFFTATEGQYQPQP
Data set [6] concerns human hepatocytes. Put plainly: Human hepatocyte stability test. It counts as in vitro ADME. How it is done:
(§3) Assessment of certain in vitro ADME (absorption, distribution, metabolism, and excretion) parameters for Compound I was conducted by BioFocus (Saffron Walden, UK). The results reveal that Compound I is cleared rapidly by human hepatocytes and that it has a reduced liability for time-dependent cytochrome P450 inhibition.

A short description of data set [7]: Human hepatocyte stability test. To be noted: human hepatocytes. It counts as in vitro ADME. How it is done:
as §3

Data set [8] addresses GSK3α (Homo sapiens (Human), UniProt P49840). Put plainly: GSK3α enzyme inhibition (Method 2), Z-LYTE FRET. The data set is classed as biochemical. How it is done: (§4) The enzyme inhibitory activities of compounds disclosed herein are determined by FRET using synthetic peptides labelled with both donor and acceptor fluorophores (Z-LYTE, Invitrogen Ltd., Paisley, UK).
The inhibitory activities of the compound of the invention against the GSK 3α enzyme isoform (Invitrogen), are evaluated by determining the level of activation/phosphorylation of the target peptide. The GSK3-α protein (500 ng/mL, 2.5 μL) is mixed with the test compound (2.5 μL at either 4 μg/mL, 0.4 μg/mL, 0.04 μg/mL, or 0.004 μg/mL) for 2 hr at RT. The FRET peptide (8 μM, 2.5 μL), which is a phosphorylation target for GSK3α, and ATP (40 μM, 2.5 μL) are then added to the enzyme/compound mixture and the resulting mixture incubated for 1 hr. Development reagent (protease, 5 μL) is added for 1 hr prior to detection in a fluorescence microplate reader (Varioskan® Flash, ThermoFisher Scientific).
In all cases, the site-specific protease cleaves non-phosphorylated peptide only and eliminates the FRET signal. Phosphorylation levels of each reaction are calculated using the ratio of coumarin emission (donor) over fluorescein emission (acceptor), for which high ratios indicate high phosphorylation and low ratios indicate low phosphorylation levels. […]

For data set [9], the target named is Syk (Homo sapiens (Human), UniProt P43405). Kind of data set: Syk enzyme inhibition, Z-LYTE FRET. It counts as biochemical. How it is done:
as §4
The inhibitory activities of the compound of the invention against c-Src and Syk enzymes (Invitrogen) are evaluated in a similar fashion to that described hereinabove. The relevant enzyme (3000 ng/mL or 2000 ng/mL respectively, 2.5 μL) is incubated with the test compound (either 1 μg/mL, 0.1 μg/mL, 0.01 μg/mL, or 0.001 μg/mL, 2.5 μL each) for 2 hr at RT. The FRET peptides (8 μM, 2.5 μL) and appropriate ATP solutions (2.5 μL, 800 μM for c-Src, and 60 μM ATP for Syk) are then added to the enzymes/compound mixtures and the mixture incubated for 1 hr. Development reagent (protease, 5 μL) is added for 1 hr prior to detection in a fluorescence microplate reader (Varioskan® Flash, ThermoFisher Scientific).
(§5) In all cases, the site-specific protease cleaves non-phosphorylated peptide only and eliminates the FRET signal. Phosphorylation levels of each reaction are calculated using the ratio of coumarin emission (donor) over fluorescein emission (acceptor), for which high ratios indicate high phosphorylation and low ratios indicate low phosphorylation levels.

Data set [10] addresses p38 MAPKα (Homo sapiens (Human), UniProt Q16539). Kind of data set: p38 MAPKα enzyme inhibition (Method 2), Z-LYTE FRET. The data set is classed as biochemical. As to the method: as §4
The inhibitory activities of test compounds against the p38 MAPKα isoform (MAPK14: Invitrogen) are evaluated indirectly by determining the level of activation/phosphorylation of the down-stream molecule, MAPKAP-K2. The p38 MAPKα protein (80 ng/mL, 2.5 μL) is mixed with the test compound (2.5 μL of either 4 μg/mL, 0.4 μg/mL, […] or 0.004 μg/mL) for 2 hr at RT. […] The mixture is incubated for 1 hr at RT. Development reagent (protease, 5 μL) is added for 1 hr prior to detection in a fluorescence microplate reader (Varioskan® Flash, ThermoFisher Scientific). […]
as §5

Usually inhibition stands for the change of the read-out against control, counted positive when it falls. A word on the IC50: it is the point on the concentration scale where inhibition reaches its midpoint. Read a high IC50 as weaker potency in that assay. By Kd is commonly meant a measure of binding affinity in units of concentration. A high value points to a looser complex. In general, half-life refers to the time in which the quantity being followed falls by half. Read a high half-life as slow decline.

human ether a go-go (hERG) channel, sequence (Q12809 whole entry): as the sequence (Q12809 whole entry) above
p38 MAPKα, sequence (Q16539 whole entry, looked up, canonical isoform): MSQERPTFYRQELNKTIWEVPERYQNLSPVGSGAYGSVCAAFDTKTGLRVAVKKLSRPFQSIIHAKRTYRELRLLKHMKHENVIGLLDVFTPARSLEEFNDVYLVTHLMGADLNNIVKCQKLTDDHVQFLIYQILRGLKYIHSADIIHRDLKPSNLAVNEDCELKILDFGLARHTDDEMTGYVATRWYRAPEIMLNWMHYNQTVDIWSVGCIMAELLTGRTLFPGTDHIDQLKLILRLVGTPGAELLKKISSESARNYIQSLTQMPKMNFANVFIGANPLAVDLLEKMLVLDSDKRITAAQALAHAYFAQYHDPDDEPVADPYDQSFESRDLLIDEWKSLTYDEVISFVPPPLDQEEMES
GSK3α, sequence (P49840 whole entry, canonical isoform): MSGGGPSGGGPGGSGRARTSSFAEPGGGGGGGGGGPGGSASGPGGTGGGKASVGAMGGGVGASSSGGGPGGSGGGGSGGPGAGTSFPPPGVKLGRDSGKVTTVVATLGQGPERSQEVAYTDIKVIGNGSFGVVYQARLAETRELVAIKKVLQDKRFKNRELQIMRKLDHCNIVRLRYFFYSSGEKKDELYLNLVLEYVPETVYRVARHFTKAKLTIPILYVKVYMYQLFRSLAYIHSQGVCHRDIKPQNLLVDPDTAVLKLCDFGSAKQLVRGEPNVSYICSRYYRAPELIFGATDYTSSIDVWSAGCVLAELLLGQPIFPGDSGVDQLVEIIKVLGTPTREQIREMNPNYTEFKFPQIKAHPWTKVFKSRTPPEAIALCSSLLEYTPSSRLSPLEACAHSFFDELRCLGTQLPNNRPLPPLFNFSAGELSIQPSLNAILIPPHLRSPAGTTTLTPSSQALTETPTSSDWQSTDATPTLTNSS

Regarding `C#Cc1cc(Nc2nccc(Oc3ccc(NC(=O)Nc4cc(C(C)(C)C)cc(NS(C)(=O)=O)c4OC)c4ccccc34)n2)cc(C(=O)NCCOCCOCCOC)c1` [Compound I, 3-((4-((4-(3-(5-(tert-Butyl)-2-methoxy-3-(methylsulfonamido)phenyl)ureido)naphthalen-1-yl)oxy)pyrimidin-2-yl)amino)-5-ethynyl-N-(2-(2-(2-methoxyethoxy)ethoxy)ethyl)benzamide], the “% Parent Remaining” value in data set [1] (0 h), in data set [1] (5 h) and in data set [1] (24 h) was 100% in each case. For the same compound, the inhibition at 3 µM in data set [2] was -12 ± 4%. Moreover, the IC50 was greater than 3000 nM in data set [3], 411 nM in [8], 591 nM in [9] and 224 nM in [10]. In addition, in data set [4], the “effect on binding of B-Raf (V600E) to its standard ligand” value is “did not have any significant effect”. The compound further returned a dissociation constant Kd in data set [5] of 4.1 nM. Also, the “Mean hepatic extraction ratio” value in [6] came out at 0.85. The compound further displayed a half-life in [7] of 34 min. Also, the hepatocyte CLint in data set [7] (read-out: Mean intrinsic clearance) was 41 µL/min/1e6 cells.
